Experimental data taken from ChEMBL document CHEMBL1201862, “PubChem BioAssay data set” (2004).
The source made the active and inactive calls.

Legend:
[1] = target: T1, Tyrosine-protein phosphatase non-receptor type 7 (Homo sapiens, UniProt P35236); test: inhibitors of human HePTP phosphatase, […], biochemical, absorbance, leukemia target (AID 521); assay type: functional
T1 sequence (P35236 whole entry): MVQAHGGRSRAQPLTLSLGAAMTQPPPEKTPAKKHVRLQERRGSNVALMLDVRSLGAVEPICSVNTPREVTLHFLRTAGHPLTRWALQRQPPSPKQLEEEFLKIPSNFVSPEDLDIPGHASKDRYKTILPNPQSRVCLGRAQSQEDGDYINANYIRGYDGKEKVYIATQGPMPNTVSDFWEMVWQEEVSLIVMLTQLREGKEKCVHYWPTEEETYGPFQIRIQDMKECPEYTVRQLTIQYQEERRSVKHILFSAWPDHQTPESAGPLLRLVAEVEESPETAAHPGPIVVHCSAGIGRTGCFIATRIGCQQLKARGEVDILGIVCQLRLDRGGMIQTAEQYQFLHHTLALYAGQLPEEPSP

[2] = target: T2, Heat shock factor protein 1 (Mus musculus, UniProt P38532); test: HSF1 potentiators in luciferase reporter cells, confirmation, cell-based, NIH3T3, luminescence, dose retest (AID 435004); assay type: functional;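 note: stress induced by proteasome inhibitor MG132 added 30 min after compound; luciferase reporter driven by HSF1 response element in NIH3T3 cells; actives raise luminescence as potentiators of the MG132 stress response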
T2 sequence (P38532 whole entry): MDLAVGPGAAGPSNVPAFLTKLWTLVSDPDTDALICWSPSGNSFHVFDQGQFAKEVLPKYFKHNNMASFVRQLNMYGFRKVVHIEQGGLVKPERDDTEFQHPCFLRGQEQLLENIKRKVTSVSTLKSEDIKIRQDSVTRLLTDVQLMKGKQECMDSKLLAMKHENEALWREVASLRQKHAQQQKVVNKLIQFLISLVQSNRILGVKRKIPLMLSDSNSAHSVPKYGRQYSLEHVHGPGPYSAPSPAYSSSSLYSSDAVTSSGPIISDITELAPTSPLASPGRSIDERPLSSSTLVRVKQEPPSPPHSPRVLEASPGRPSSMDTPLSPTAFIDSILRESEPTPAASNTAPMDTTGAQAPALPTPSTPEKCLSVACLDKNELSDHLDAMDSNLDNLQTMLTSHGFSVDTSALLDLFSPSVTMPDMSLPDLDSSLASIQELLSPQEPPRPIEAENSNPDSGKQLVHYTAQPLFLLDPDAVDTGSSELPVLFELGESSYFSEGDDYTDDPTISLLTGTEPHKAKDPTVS

[3] = M. tuberculosis H37Rv growth inhibitors, H37Rv strain (AID 1626); assay type: functional
[4] = cytotoxicity toward NIH3T3 fibroblasts, dose response, counter-screen, cell-based, ATP luminescence, mouse fibroblasts (AID 2010); assay type: functional;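 note: cells exposed to compound for about 90 hours before reading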
[5] = inhibitors of intracellular T. cruzi replication, confirmation, NIH3T3 host cells, beta-gal luminescence (AID 2044); assay type: functional, cell-based;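 note: intracellular parasites grown in NIH/3T3 mouse fibroblasts as host cells; luminescent beta-galactosidase reporter signal from transgenic T. cruzi replicating inside host cells; inhibitors lower the luminescence signal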
[6] = target: Luciferin 4-monooxygenase (Photinus pyralis, UniProt P08659); test: Counter Screen for Luciferase-based Assay Positives. [Related pubchem assays: 620, 618, 411 ]
HT-1080 = test: cytotoxicity in HT1080 fibrosarcoma cells, cell-based, fluorescence readout (AID 620); assay type: functional; conditions: Homo sapiens
[7] = target: Melanin-concentrating hormone receptor 1 (Homo sapiens, UniProt Q99705); test: Late-stage fluorescence-based counterscreen for antagonists of the G-protein coupled receptor 7 (GPR7): cell-based dose response assay to identify antagonists of the melanin-concentrating hormone receptor 1 (MCHR1). [Related pubchem assays (depositor defined):AID1861, AID1880, AID1952, AID2148, AID2251, AID2257, AID485339]; assay type: functional;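 note: stimulated with 30 nM MCH peptide agonist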
[8] = Luminescence Cell-Based Dose Response HTS to Identify Activators of Luciferase Translation or Activity in H4 […] Cells. [Related pubchem assays: 1829 (Project Summary), 1814 (Primary HTS)]; assay type: functional
[9] = target: DNA dC->dU-editing enzyme APOBEC-3A (Homo sapiens, UniProt P31941); test: APOBEC3A DNA deaminase inhibitors, dose response, biochemical (AID 504722); assay type: functional
[10] = target: DNA dC->dU-editing enzyme APOBEC-3G (Homo sapiens, UniProt Q9HC16); test: Dose Response confirmation of small molecule APOBEC3G DNA Deaminase Inhibitors via a fluorescence-based single-stranded DNA deaminase assay. [Related pubchem assays (depositor defined):AID493012, AID493028]; assay type: functional
[11] = Luminescence Cell-Based Dose Confirmation HTS to Identify Activators of 5'UTR Stem-Loop Driven Alpha-Synuclein mRNA Translation in H4 Neuroglioblastoma Cells. [Related pubchem assays: 1829 (Project Summary), 1814 (Primary HTS)]; assay type: functional
[12] = inhibitors of Vif binding to APOBEC3G peptide, primary screen, biochemical, TR-FRET, GST-Vif 1-94, biotin-A3G peptide, dose response retest (AID 1117319); assay type: functional;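 note: TR-FRET signal of purified GST-Vif binding a biotinylated A3G peptide; inhibitors lower the FRET signal by blocking Vif and A3G binding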
[13] = target: T3, Voltage-gated N-type calcium channel alpha-1B subunit/Amyloid beta A4 precursor protein-binding family A member 1 (Homo sapiens, UniProt Q00975+Q02410); assay type: protein assay
Large T antigen = Large T antigen (Simian virus 40, UniProt P03070); assay type: functional, Betapolyomavirus macacae;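 note: Confirmatory-stage PubChem screen for compounds that inhibit SV40 T antigen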
[14] = target: T3, Voltage-gated N-type calcium channel alpha-1B subunit/Amyloid beta A4 precursor protein-binding family A member 1; assay type: protein assay; remark: listed apart in the source
H4 = test: Luminescence Cell-Based Dose Response HTS to Identify Activators of 5'UTR Stem-Loop Driven Prion Protein mRNA Translation in H4 Neuroglioblastoma Cells. [Related pubchem assays: 1829 (Project Summary), 1814 (Primary HTS)]; assay type: functional; conditions: Homo sapiens
Protein Tat = target: T4, Protein Tat (Human immunodeficiency virus type 1 group M subtype B (isolate HXB2)(HIV-1), UniProt P04608); assay type: functional;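 note: tat binding to TAR RNA read out by fluorescence polarization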
T4 sequence (P04608 whole entry): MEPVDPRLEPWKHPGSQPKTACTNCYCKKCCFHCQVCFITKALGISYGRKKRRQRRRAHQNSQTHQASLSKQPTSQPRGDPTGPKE

Beta-lactamase [15] = target: Beta-lactamase (Pseudomonas aeruginosa, UniProt Q79MP6);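 note: biochemical dose-response test of metallo-beta-lactamase enzyme inhibition, read out by epi-absorbance; purified recombinant IMP-1 metallo-beta-lactamase with nitrocefin as substrate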
[16] = target: T5, RNA-binding protein pos-1 (Caenorhabditis elegans, UniProt G5EF15); test: inhibitors of POS-1/mex-3 RNA binding, dose response, biochemical, fluorescence polarization (AID 1964);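 note: purified POS-1 fused to maltose binding protein made in E. coli; potency of compounds blocking POS-1 binding to fluorescent RNA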
T5 sequence (G5EF15 whole entry): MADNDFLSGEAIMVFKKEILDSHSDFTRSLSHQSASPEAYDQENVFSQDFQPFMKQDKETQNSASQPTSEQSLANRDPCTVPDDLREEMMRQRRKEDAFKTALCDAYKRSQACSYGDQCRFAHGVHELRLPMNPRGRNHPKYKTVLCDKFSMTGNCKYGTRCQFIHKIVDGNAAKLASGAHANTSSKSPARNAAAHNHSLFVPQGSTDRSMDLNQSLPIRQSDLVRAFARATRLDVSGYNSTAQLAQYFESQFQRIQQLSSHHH

[17] = target: T6, Zinc finger protein mex-5 (Caenorhabditis elegans, UniProt Q9XUB2); test: MEX-5/TCR-2 RNA interaction inhibitors, dose response, biochemical, C. elegans, fluorescence polarization (AID 1960)
T6 sequence (Q9XUB2 whole entry): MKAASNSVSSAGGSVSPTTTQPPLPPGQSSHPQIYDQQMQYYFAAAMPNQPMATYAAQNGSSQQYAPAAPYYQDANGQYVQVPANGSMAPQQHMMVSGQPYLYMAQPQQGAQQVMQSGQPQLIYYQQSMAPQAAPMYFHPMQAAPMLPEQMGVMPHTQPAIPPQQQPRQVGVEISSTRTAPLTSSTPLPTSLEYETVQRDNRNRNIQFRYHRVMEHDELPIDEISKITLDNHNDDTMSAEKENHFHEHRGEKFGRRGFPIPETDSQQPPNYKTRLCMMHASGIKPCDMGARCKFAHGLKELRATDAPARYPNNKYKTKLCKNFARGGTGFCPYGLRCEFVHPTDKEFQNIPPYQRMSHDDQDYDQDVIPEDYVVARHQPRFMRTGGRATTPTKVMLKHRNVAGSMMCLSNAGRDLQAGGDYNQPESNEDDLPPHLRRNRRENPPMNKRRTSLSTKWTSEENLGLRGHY

[18] = target: G-protein coupled receptor 35 (Homo sapiens, UniProt Q9HC97); test: GPR35 antagonists blocking zaprinast-driven arrestin recruitment, primary screen, imaging, U2OS, beta-arrestin-GFP, zaprinast agonist (AID 2058); assay type: functional;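 note: antagonist potency meaning inhibition of agonist-induced arrestin redistribution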
Beta-lactamase [19] = target: Beta-lactamase (Salmonella choleraesuis (strain SC-B67), UniProt Q5J463)
Sequence of Beta-lactamase (Salmonella choleraesuis (strain SC-B67), UniProt Q5J463) (Q5J463 whole entry): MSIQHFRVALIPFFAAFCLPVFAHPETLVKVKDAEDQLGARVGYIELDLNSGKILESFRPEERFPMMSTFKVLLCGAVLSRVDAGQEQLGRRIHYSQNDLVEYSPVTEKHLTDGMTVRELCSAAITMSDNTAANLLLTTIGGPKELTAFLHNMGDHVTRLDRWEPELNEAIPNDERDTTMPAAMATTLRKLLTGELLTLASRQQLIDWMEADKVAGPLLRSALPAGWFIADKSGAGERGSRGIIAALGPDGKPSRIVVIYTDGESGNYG

T3 sequence (Q00975 whole entry): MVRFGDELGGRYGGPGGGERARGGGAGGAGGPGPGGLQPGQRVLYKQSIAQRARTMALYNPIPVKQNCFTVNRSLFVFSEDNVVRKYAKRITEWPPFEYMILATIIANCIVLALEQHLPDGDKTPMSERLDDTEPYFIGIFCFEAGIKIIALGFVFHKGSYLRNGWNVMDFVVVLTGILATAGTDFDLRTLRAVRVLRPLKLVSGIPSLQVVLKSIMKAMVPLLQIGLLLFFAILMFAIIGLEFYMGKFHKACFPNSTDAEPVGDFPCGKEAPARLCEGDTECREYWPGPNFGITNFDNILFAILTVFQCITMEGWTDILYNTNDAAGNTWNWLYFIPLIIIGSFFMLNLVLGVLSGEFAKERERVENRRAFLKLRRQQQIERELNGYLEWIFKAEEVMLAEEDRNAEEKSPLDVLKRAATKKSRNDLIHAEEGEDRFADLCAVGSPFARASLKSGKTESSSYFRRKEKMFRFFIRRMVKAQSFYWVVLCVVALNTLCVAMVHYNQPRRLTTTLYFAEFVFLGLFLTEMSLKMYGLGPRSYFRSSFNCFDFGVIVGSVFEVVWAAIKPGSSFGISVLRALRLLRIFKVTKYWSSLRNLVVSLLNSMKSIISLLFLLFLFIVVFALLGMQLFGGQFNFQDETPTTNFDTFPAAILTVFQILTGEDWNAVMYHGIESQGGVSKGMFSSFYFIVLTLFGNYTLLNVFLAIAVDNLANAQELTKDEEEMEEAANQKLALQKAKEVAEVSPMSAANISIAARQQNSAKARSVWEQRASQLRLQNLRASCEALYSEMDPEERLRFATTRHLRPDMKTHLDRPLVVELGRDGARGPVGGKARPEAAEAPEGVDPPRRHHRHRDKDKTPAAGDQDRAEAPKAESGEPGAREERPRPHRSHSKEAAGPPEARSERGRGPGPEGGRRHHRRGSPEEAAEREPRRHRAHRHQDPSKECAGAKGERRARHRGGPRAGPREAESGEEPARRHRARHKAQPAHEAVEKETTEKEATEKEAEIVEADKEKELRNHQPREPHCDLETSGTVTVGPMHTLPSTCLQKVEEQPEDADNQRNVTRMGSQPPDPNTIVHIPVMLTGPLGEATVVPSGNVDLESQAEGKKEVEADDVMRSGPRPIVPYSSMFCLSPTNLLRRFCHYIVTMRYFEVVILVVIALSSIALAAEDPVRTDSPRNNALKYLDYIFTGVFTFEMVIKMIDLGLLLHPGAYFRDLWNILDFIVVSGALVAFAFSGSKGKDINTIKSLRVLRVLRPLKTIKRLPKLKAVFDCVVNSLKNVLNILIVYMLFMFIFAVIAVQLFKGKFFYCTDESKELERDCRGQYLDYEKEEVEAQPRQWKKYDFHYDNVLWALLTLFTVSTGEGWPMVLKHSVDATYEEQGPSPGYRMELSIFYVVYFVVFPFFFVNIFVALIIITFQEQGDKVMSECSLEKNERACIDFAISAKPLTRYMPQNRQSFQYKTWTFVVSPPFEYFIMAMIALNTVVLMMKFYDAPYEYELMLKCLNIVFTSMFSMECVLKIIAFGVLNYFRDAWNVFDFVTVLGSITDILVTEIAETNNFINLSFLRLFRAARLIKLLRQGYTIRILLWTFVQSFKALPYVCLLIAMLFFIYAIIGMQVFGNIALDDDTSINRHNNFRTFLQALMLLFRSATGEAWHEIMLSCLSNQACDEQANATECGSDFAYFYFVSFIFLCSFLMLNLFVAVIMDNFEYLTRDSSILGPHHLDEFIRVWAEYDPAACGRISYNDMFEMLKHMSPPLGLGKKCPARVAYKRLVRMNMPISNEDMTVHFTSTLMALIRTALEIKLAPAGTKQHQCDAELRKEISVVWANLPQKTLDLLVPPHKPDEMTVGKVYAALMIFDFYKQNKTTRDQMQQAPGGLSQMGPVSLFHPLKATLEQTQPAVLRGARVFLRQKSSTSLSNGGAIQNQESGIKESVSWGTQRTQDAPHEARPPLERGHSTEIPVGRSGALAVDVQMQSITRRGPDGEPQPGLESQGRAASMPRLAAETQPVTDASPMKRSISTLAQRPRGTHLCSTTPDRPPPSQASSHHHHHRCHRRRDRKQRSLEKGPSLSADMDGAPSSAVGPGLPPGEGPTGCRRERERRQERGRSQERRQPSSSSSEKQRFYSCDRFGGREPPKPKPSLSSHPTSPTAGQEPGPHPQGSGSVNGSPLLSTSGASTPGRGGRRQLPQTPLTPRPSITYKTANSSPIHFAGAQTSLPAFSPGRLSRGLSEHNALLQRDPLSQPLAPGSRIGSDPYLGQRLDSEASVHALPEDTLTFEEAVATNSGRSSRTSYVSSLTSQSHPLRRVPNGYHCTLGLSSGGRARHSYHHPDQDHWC
T3 sequence (Q02410 whole entry): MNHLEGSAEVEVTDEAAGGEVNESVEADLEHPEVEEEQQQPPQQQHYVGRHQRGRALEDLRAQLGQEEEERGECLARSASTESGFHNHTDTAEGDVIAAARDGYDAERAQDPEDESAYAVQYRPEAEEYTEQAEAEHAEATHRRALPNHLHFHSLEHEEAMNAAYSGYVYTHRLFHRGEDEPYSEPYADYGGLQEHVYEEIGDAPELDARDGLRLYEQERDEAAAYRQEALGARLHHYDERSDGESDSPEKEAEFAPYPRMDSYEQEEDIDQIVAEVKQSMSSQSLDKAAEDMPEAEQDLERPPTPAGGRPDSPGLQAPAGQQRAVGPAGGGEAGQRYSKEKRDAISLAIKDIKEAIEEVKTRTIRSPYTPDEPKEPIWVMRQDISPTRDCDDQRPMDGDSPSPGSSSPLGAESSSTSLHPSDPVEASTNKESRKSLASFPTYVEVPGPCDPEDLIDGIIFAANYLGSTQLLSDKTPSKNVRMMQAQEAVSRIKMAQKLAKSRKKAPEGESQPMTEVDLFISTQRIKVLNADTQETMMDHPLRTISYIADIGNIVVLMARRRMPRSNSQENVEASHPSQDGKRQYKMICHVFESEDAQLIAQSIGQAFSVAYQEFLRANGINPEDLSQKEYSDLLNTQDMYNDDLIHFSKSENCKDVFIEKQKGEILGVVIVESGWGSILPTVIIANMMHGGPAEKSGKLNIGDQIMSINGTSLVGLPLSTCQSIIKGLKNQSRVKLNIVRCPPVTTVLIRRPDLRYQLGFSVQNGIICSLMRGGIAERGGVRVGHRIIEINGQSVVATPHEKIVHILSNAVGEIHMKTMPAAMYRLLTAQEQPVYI
Sequence of Large T antigen (P03070 whole entry): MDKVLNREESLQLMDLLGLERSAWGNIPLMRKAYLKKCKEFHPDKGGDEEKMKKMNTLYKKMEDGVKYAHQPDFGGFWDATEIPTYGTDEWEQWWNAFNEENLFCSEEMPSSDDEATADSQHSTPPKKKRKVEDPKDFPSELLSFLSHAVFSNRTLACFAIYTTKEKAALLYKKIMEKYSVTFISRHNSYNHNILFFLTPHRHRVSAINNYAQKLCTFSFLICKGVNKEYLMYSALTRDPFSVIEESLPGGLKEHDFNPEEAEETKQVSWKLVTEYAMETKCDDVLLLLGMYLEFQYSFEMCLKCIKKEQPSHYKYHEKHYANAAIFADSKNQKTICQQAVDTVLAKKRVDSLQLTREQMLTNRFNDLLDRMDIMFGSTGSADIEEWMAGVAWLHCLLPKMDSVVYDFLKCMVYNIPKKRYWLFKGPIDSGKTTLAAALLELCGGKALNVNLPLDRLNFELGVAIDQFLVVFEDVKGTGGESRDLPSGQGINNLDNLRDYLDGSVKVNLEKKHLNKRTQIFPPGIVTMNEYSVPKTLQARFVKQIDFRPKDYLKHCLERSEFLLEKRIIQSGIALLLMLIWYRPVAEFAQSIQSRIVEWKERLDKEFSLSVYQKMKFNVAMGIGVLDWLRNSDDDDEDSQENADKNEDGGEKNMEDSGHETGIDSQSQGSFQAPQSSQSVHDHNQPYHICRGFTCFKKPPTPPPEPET
Sequence of DNA dC->dU-editing enzyme APOBEC-3A (P31941 whole entry): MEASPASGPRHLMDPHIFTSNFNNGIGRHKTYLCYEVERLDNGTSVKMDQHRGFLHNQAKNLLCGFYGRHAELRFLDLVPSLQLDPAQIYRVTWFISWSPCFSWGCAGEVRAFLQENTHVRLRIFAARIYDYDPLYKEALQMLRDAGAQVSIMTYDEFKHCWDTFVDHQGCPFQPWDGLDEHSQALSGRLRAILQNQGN
Sequence of Melanin-concentrating hormone receptor 1 (Q99705 whole entry): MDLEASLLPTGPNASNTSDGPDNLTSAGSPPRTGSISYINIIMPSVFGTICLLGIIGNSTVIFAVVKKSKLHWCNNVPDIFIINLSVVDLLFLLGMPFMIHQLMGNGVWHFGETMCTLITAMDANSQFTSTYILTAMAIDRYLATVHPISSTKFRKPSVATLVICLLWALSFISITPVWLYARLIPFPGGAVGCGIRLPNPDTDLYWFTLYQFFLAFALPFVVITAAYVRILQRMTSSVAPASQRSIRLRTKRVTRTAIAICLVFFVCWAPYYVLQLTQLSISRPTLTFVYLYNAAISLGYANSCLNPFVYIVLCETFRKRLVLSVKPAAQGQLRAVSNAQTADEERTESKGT
Sequence of Beta-lactamase (Pseudomonas aeruginosa, UniProt Q79MP6) (Q79MP6 whole entry, the tested form may be a part): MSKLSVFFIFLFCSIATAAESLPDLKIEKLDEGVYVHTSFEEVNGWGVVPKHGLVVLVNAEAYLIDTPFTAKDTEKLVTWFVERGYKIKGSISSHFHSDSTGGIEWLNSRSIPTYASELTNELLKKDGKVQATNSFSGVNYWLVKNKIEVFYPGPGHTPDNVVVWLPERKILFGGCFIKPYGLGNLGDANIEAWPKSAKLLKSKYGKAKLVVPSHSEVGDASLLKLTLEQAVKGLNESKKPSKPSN

O=C(NCc1cccc(F)c1)c1noc2c1CCCC2
IC50 [1]: > 100 µM (not active) | EC50 [2]: > 260 µM (inactive)

CN1C(=O)C(=CNc2ccc3c(c2)CCC3)C(=O)N(C)C1=O
IC50 [3]: > 100 µM (active)

Cc1ccc(-c2csc(N=C(N)N)n2)c(C)c1
EC50 [4]: > 60 µM (not active) | EC50 [5]: < 0.1 µM (active) | EC50 (cells): 0.167 µM (active)

CC1CCc2nc(NC(=O)C3CCCO3)sc2C1 (centres undefined)
EC50 [6]: < 0.2 µM (active) | EC50 (HT-1080): > 50 µM (not active)

Cc1ccc(-n2ncc(Cl)c(Oc3ccc(CO)cc3)c2=O)cc1
IC50 [7]: > 20 µM (inactive)

Cc1ccc(N2CSC3=C(C#N)C(c4cccs4)CC(=O)N3C2)cc1 (centres undefined)
EC50 [8]: 17 µM (active) | IC50 [9]: > 100 µM (inactive) | IC50 [10]: 5.19 µM (active) | EC50 [11]: 13.2 µM (active) | IC50 [12]: > 100 µM (active) | IC50 [13]: > 50 µM (inactive) | IC50 (Large T antigen): > 100 µM (active) | IC50 [14]: 3.74 µM (active) | EC50 (H4): 7.71 µM (active) | IC50 (Protein Tat): > 100 µM (active)

CN1C(=O)/C(=C\c2ccc(N(C)C)cc2)OC1=S
IC50 (Beta-lactamase [15]): > 59.6 µM (inactive) | EC50 [16]: > 300 µM (not active) | EC50 [17]: > 300 µM (inconclusive) | IC50 [18]: 1.12 µM (active) | IC50 (Beta-lactamase [19]): > 59.6 µM (inactive)
